# Assay results: US5099030A, “Novel compounds, pharmaceutical compositions, and methods for treating inflammation and pain” (The Procter & Gamble Company, priority 1991, dated 1992)
# Assays:
# [1] = Rodent Hot Plate Test; assay type: in vivo, male Sprague-Dawley rats
# Protocol: The degree of thermal analgesia obtained is determined using the "rodent hot plate test" (RHP). The RHP system is designed to detect and evaluate agents which elevate the threshold for the perception of pain. Classically, this method has been utilized primarily to evaluate opioid (narcotic) analgesic agents, such as morphine.
# Male Sprague-Dawley rats (Charles River Breeding Laboratories Inc.) weighing between 100 and 125 grams upon arrival are used to evaluate the compounds of the present invention. Animals are double housed in stainless steel cages, and are fed Purina Rat Chow and tap water ad libitum. The animals are food fasted the afternoon proceeding the day of the study, and food is returned 5 hours post-treatment. Animals not being dosed by oral gavage are not fasted.
# The apparatus for evaluating analgesic activity consists of an insulated copper hot plate whose surface is maintained at 55°±0.5° C. by a circulating water bath. A bottomless glass container (12" (30 cm) tall by 8" (20 cm) diameter) is used to restrict the animal to a defined area of the hot plate. After dosing, the animal is placed through the top opening of the container, and a stop watch is started when the animal makes contact with the plate. The stop-watch is stopped upon either of the following visually observed end points: (1) licking or biting of either hind paw, or (2) jumping. If the jump is not successful but both hind paws leave the surface of the plate in an effort to jump, this is considered jumping. The stop-watch is stopped at the end point and the animal is immediately removed from the hot plate. The time (latency) between the initial contact of the animal on the hot plate and the endpoint is recorded.
# Prior to dosing, animals are tested on the hot plate. This is denoted as pretest or base line latency. Usually, the animals are dosed by oral gavage, using a 1 cubic cm glass syringe connected to a size 8 french catheter. The dose volume is 5 ml/kg. On occasion, the animals are dosed by either subcutaneous administration or intravenous injection. Using the subcutaneous administration, a 1 ml tuberculin syringe is connected to a 25 gauge 5/8 inch needle, and injected under the skin in the neck or back region. For intravenous dosing, a 1 ml tuberculin syringe is connected to a 25 gauge 3/4 inch winged infusion set, and injected into the tail vein. The dose volume for subcutaneous and intravenous routes is 1 ml/kg. The latency times are typically recorded at 1.5, 3, 5, and 24 hours post-treatment. Much shorter times are recorded for an intravenous administration.
# [2] = Oral soft gelatin capsules in human (Example VIII); assay type: in vivo; conditions: two oral capsules, 225 mg of composition each, 60 kg human
# Protocol: (§1) A composition for oral administration is prepared by combining the following ingredients:
# The octadecenamide is dissolved in the sesame oil with the aid of sonication and is packaged in soft gelatin capsules using methods known in the art.
# [3] = Oral syrup in human (Example IX); assay type: in vivo; conditions: one teaspoon of syrup, 70 kg adult human
# Protocol: as §1
# The above ingredients are combined to produce a syrup and are packaged under sterile conditions in 6 oz. bottles.
# [4] = Topical application to human forearm (Example X); assay type: in vivo; conditions: replacing N-((4-(2-methyl-2-aminopropoxy)-3-methoxyphenyl)-methyl)-9Z-octadecenamide
# Protocol: A composition for topical administration is prepared by combining the following ingredients:
# The octadecenamide is dissolved in a solution containing the other ingredients. Application of 0.4 ml of the resulting liquid to a 80 cm^2 portion of the forearm of a 60 kg human produces local analgesia which lasts approximately two days.
# [5] = Carrageenan Rat Paw Edema Test; assay type: in vivo, male Sprague Dawley rats; conditions: oral (stomach tube), 1 h before carrageenan, paw volume 4 h after carrageenan
# Protocol: Compounds of the present invention are tested for anti-inflammatory activity using the Carrageenan Rat Paw Edema Test.
# Male Sprague Dawley rats (Charles River Breeding Laboratories Inc.) are weighed and food fasted overnight. The animals are divided into four to six groups of six animals each according to body weights, average about 145 g, so that each group has about the same average weight (within 10 g).
# The following morning five ml of water is dosed orally via stomach tube to each animal to facilitate paw swelling. Thirty minutes later the animals are dosed with the test compound and then placed in individual cages. The compound of the present invention is dissolved in distilled deionized water with 1 equivalent of 1N acetic acid and delivered via stomach tube in 1 ml volume.
# One hour after dosing the test compound, the animals are placed in a plastic restrainer and 50 ul of a 1% (w/w) carrageenan solution in 0.9% saline is injected into the ventral surface of the left rear paw. Paw volumes (0 time) are determined on both hind paws with a mercury displacement device equipped with a transducer and digitizer following the carrageenan injection. Four hours after the carrageenan injection, the paw volumes are again determined.
# The results are expressed as percent inhibition of the mean paw volume of the test group relative to the control group according to the formula:
# (C-T a..n)/C×100=Percent Inhibition
# where C is the average difference in paw volume before and after carrageenan-induced swelling, and
# Ta..n is the difference in paw swelling in the treated animals (a..n). Statistical differences are determined by one way analysis of variance.
# [6] = Mouse Abdominal Constriction Assay (phenylquinone writhing); assay type: in vivo, male CF-1 mice; conditions: for % Analgesia: 1.5 h post-dose
# Protocol: Compounds of the present invention are tested for analgesic activity using the mouse abdominal constriction assay. This assay is described in Hendershot and Forsaith, J. Pharmacol. Exo.
# Male CF-1 mice (Charles River Breeding Laboratories, Inc.), weighing approximately 20 grams and food fasted overnight, are used in these assays. Test compounds are prepared for oral (p.o.) or subcutaneous (s.c.) administration, with compounds of the present invention being prepared in acidified (1N acetic acid) distilled deionized water so that the appropriate dose is given in 0.2 mls to a 20 gram mouse.
# Ten minutes after the i.p. injection of phenylquinone, the number of full body writhes are counted for the succeeding ten minutes. Percent analgesia in this assay is calculated as follows: [formula]
# [7] = unless administered in toxic quantities; antipyretic analgesics; cited from earlier work
smiles,measurement,setting,value
CCCCCCCC/C=C\CCCCCCCCNC(=O)Cc1ccc(OCCN)c(OC)c1 [N-(9Z-octadecenyl)-4-(2-aminoethoxy)-3-methoxyphenylacetamide],Mean Latency Times,"[1]; 10 mg/kg oral, 1.5 hr post dose",6.7 s
same,Mean Latency Times,"[1]; 10 mg/kg oral, 3 hr post dose",15.3 s
same,Mean Latency Times,"[1]; 10 mg/kg oral, 5 hr post dose",13.5 s
same,Mean Latency Times,"[1]; 10 mg/kg oral, 24 hr post dose",9.1 s
same,Mean Latency Times,"[1]; 25 mg/kg oral, 1.5 hr post dose",10.5 s
same,Mean Latency Times,"[1]; 25 mg/kg oral, 3 hr post dose",11.2 s
same,Mean Latency Times,"[1]; 25 mg/kg oral, 5 hr post dose",10.8 s
same,Mean Latency Times,"[1]; 25 mg/kg oral, 24 hr post dose",8.0 s
same,Mean Latency Times,"[1]; 50 mg/kg oral, 1.5 hr post dose",24.5 s
same,Mean Latency Times,"[1]; 50 mg/kg oral, 3 hr post dose",12.2 s
same,Mean Latency Times,"[1]; 50 mg/kg oral, 5 hr post dose",10.6 s
same,Mean Latency Times,"[1]; 50 mg/kg oral, 24 hr post dose",15.9 s
same,Mean Latency Times,"[1]; 100 mg/kg oral, 1.5 hr post dose",16.4 s
same,Mean Latency Times,"[1]; 100 mg/kg oral, 3 hr post dose",13.4 s
same,Mean Latency Times,"[1]; 100 mg/kg oral, 5 hr post dose",11.9 s
same,Mean Latency Times,"[1]; 100 mg/kg oral, 24 hr post dose",21.5 s
same,analgesia,[2],increased analgesic effect
same,reduction of inflammation,[2],substantially similar reduction of inflammation
same,analgesia,[3],producing analgesia
same,reduction of inflammation,[3],reducing inflammation
same,local analgesic effect,[4],substantially similar local analgesic effect
CCCCCCCC/C=C\CCCCCCCC(=O)NCc1ccc(OCCN)c(OC)c1 [N-((4-(2-aminoethoxy)-3-methoxyphenyl)-methyl)-9Z-octadecenamide],% Inhibition (of paw volume/swelling vs control),[5]; 25 mg/kg,53.5%
same,% Inhibition (of paw volume/swelling vs control),[5]; 50 mg/kg,73.7%
same,% Inhibition (of paw volume/swelling vs control),[5]; 100 mg/kg,64.9%
same,% Inhibition (of paw volume/swelling vs control),[5]; 200 mg/kg,61.4%
same,Mean Latency Times,"[1]; 75 mg/kg oral, 1.5 hr post dose",21.8 s
same,Mean Latency Times,"[1]; 75 mg/kg oral, 3 hr post dose",18.9 s
same,Mean Latency Times,"[1]; 75 mg/kg oral, 5 hr post dose",18.7 s
same,Mean Latency Times,"[1]; 75 mg/kg oral, 24 hr post dose",11.2 s
same,Mean Latency Times,"[1]; 150 mg/kg oral, 1.5 hr post dose",30.6 s
same,Mean Latency Times,"[1]; 150 mg/kg oral, 3 hr post dose",18.9 s
same,Mean Latency Times,"[1]; 150 mg/kg oral, 5 hr post dose",15.0 s
same,Mean Latency Times,"[1]; 150 mg/kg oral, 24 hr post dose",11.5 s
same,Mean Latency Times,"[1]; 300 mg/kg oral, 1.5 hr post dose",30.7 s
same,Mean Latency Times,"[1]; 300 mg/kg oral, 3 hr post dose",22.6 s
same,Mean Latency Times,"[1]; 300 mg/kg oral, 5 hr post dose",21.0 s
same,Mean Latency Times,"[1]; 300 mg/kg oral, 24 hr post dose",16.5 s
same,potency and efficacy relative to codeine,[1]; oral,at least as potent and efficacious as the known opiate codeine
same,% Analgesia,[6]; 1 mg/kg subcutaneous,22.3%
same,% Analgesia,[6]; 2 mg/kg subcutaneous,-13.7%
same,% Analgesia,[6]; 4 mg/kg subcutaneous,34.3%
same,% Analgesia,[6]; 8 mg/kg subcutaneous,57.8%
same,% Analgesia,[6]; 10 mg/kg oral,55.8%
same,% Analgesia,[6]; 10 mg/kg subcutaneous,91.4%
same,% Analgesia,[6]; 25 mg/kg oral,71.7%
same,% Analgesia,[6]; 75 mg/kg oral,88.3%
same,% Analgesia,[6]; 100 mg/kg subcutaneous,99.0%
same,% Analgesia,[6]; 150 mg/kg oral,95.5%
same,% Analgesia,[6]; 300 mg/kg oral,93.2%
same,analgesic potency compared with N-vanillyloleamide,"[6]; oral, at a substantially lower dose",substantially greater analgesic potency at a substantially lower dose
same,analgesia,[2],producing analogesia
same,reduction of inflammation,[2],reducing inflammation
same,analgesia,[3],substantially similar reduction of inflammation and analgesic effect
same,reduction of inflammation,[3],substantially similar reduction of inflammation
CC(=O)Nc1ccc(O)cc1 [acetaminophen],activity in the RHP system,[7],little or no activity
CC(=O)Oc1ccccc1C(=O)O [aspirin],activity in the RHP system,[7],little or no activity
